In brackets after ≈: the same amount, converted by molar mass. Like-named read-outs stand apart in the source and are kept apart here.
How the values were obtained:
[1] = test system: Staphylococcus aureus ATCC29213; assay: Minimal inhibitory concentration (MIC); type: cell-based
Method: (§1) To 7- to 9-week male C57BL/6J mice (purchased from CLEA Japan, Inc. or Japan SLC, Inc.), Zymosan A (SIGMA) derived from budding yeasts which is adjusted to be 1 mg/ml in a phosphate buffer solution (PBS, 10010-49, Invitrogen) was administered intraperitoneally at 1 ml per mouse to induce peritonitis. Three days later, filter-sterilized cell recovery buffer (2 mM EDTA, 0.5% bovine serum albumin, PBS, pH 7.4) was administered intraperitoneally at 5 ml per mouse to recover peritoneal exudata cells. The cells went through a cell strainer (70 μm nylon, FALCON) and were then washed twice with a Hanks solution (Invitrogen). The cells were suspended in 10% fetal calf serum-containing Dulbecco's modified Eagle's culture medium (Invitrogen). The suspension was seeded on a plate with 48 wells, after 6 hours, the culture medium was completely exchanged. After culturing for another 18 hours, test compounds were added at 0.02 to 20 μM of the final concentration. After 1 hour from the addition of the compounds, a tumor necrosis factor (TNF) α (R & D Systems) was added at 25 ng/ml of the final concentration, and 24 hours later, the culture supernatant was collected. The amount of pro MMP-9 protein in the supernatant was quantified by an enzyme-linked immunosorbent assay (ELISA) (R & D Systems), IC50 values of the test compounds on the increased amount by TNF α stimuli, were calculated by ORIGIN analysis software (trade name: OriginLab). In addition, minimal inhibitory concentration (MIC) of each test compounds (measured bacterium: Staphylococcus aureus ATCC29213) was measured. As a comparative agent […] A (clarithromycin) was used.

pro MMP-9 protein = assay: Inhibitory activity against proMMP-9 protein production (TNF α-stimulated mouse peritoneal exudate cells, ELISA); type: cell-based, C57BL/6J mice
Method: as §1

[2] = relative activity when the value of Comparative Agent 1 (IC50 = 10.04 ± 4.11 μM) is 10, on the increase of pro MMP-9 by TNF α 25 ng/ml, 24 hours, read-out: IC50 (μM)*

Row | MIC [1] | IC50 (pro MMP-9 protein; [2]) | SMILES | IC50 (pro MMP-9 protein; actual value of Comparative Agent 1 (table footnote), not normalised, read-out: IC50)
1 | > 128 µg/mL | 6.56 µM | CC[C@H]1OC(=O)[C@H](C)[C@@H](O[C@H]2C[C@@](C)(OC)[C@@H](OC(C)=O)[C@H](C)O2)[C@H](C)[C@@H](O[C@@H]2O[C@H](C)C[C@H](N(C)C)[C@H]2OC)[C@@](C)(OC)C[C@@H](C)[C@H](OC(=O)CCN(C)C)[C@H](C)[C@@H](OC(=O)CCN(C)C)[C@]1(C)O [Compound W of Example 147, 4″-O-acetyl-9-deoxo-9-(S)-(3-dimethylaminopropionyloxy)-11-O-(3-dimethylaminopropionyl)-6,2′-di-O-methylerythromycin A] | –
2 | > 128 µg/mL | 3.47 µM | CC[C@H]1OC(=O)[C@H](C)[C@@H](O[C@H]2C[C@@](C)(OC)[C@@H](OC(C)=O)[C@H](C)O2)[C@H](C)[C@@H](O[C@@H]2O[C@H](C)C[C@@H](N3CCOCC3)[C@@H]2N(C)C)[C@@](C)(OC)C[C@@H](C)C(=O)[C@H](C)[C@@H](O)[C@H]1C [Example 209, 4″-O-acetyl-3′-dedimethylamino-2′-deoxy-2′-dimethylamino-3′-(4-morpholino)-6-O-methylerythromycin B] | –
3 | > 128 µg/mL | 7.68 µM | CC[C@H]1OC(=O)[C@H](C)[C@@H](O[C@H]2C[C@@](C)(OC)[C@@H](OC(C)=O)[C@H](C)O2)[C@H](C)[C@@H](O[C@@H]2O[C@H](C)C[C@H](N(C)C)[C@H]2OC)[C@@](C)(OC)C[C@@H](C)C(=O)[C@H](C)[C@H]2NC(=O)O[C@@]21C [Example 148, 4″-O-acetyl-11-amino-11-deoxy-6,2′-di-O-methylerythromycin A 11,12-cyclic carbamate] | –
4 | > 128 µg/mL | 2.88 µM | CC[C@H]1OC(=O)[C@H](C)[C@@H](O[C@H]2C[C@@](C)(OC)[C@@H](OC(C)=O)[C@H](C)O2)[C@H](C)[C@@H](O[C@@H]2O[C@H](C)C[C@@H](N(C)CCCO)[C@@H]2N(C)C)[C@@](C)(OC)C[C@@H](C)C(=O)[C@H](C)[C@@H](O)[C@]1(C)O [Example 198, 4″-O-acetyl-3′-N-demethyl-2′-deoxy-2′-dimethylamino-3′-N-(3-hydroxypropyl)-6-O-methylerythromycin A] | –
5 | > 128 µg/mL | 3.33 µM | CC[C@H]1OC(=O)[C@H](C)[C@@H](O[C@H]2C[C@@](C)(OC)[C@@H](O)[C@H](C)O2)[C@H](C)[C@@H](O[C@@H]2O[C@H](C)C[C@H](N(C)CCCN3CCOCC3)[C@H]2OC)[C@@](C)(OC)C[C@@H](C)C(=O)[C@H](C)[C@@H](O)[C@]1(C)O [Example 131, 3′-N-demethyl-3′-N-(3-(4-morpholino)propyl)-6,2′-di-O-methylerythromycin A] | –
6 | 0.25 µg/mL (≈ 0.334 µM) | 10 µM | CC[C@H]1OC(=O)[C@H](C)[C@@H](O[C@H]2C[C@@](C)(OC)[C@@H](O)[C@H](C)O2)[C@H](C)[C@@H](O[C@@H]2O[C@H](C)C[C@H](N(C)C)[C@H]2O)[C@](C)(OC)C[C@@H](C)C(=O)[C@H](C)[C@@H](O)[C@]1(C)O [Comparative Agent 1, 6-O-methylerythromycin A, reference compound] | 10 µM
7 | > 128 µg/mL | 1.21 µM | CC[C@H]1OC(=O)[C@H](C)[C@@H](O[C@H]2C[C@@](C)(OC)[C@@H](OC(C)=O)[C@H](C)O2)[C@H](C)[C@@H](O[C@@H]2O[C@H](C)C[C@@H](N3CCOCC3)[C@@H]2N(C)CCN(C)C)[C@@](C)(OC)C[C@@H](C)C(=O)[C@H](C)[C@@H](O)[C@]1(C)O [Example 215] | –
8 | > 128 µg/mL | 2.89 µM | CC[C@H]1OC(=O)[C@H](C)[C@@H](O[C@H]2C[C@@](C)(OC)[C@@H](O)[C@H](C)O2)[C@H](C)[C@@H](O[C@@H]2O[C@H](C)C[C@@H](N3CCN(CCN(C)C)CC3)[C@@H]2N(C)C)[C@@](C)(OC)C[C@@H](C)C(=O)[C@H](C)[C@@H](O)[C@]1(C)O [Example 169, 3′-dedimethylamino-2′-deoxy-2′-dimethylamino-3′-(4-(2-dimethylaminoethyl)piperazin-1-yl)-6-O-methylerythromycin A] | –
9 | > 128 µg/mL | 0.62 µM | CC[C@H]1OC(=O)[C@H](C)[C@@H](O[C@H]2C[C@@](C)(OC)[C@@H](O)[C@H](C)O2)[C@H](C)[C@@H](O[C@@H]2O[C@H](C)C[C@@H](N3CCCCC3)[C@@H]2N(C)C)[C@@](C)(OC)C[C@@H](C)C(=O)[C@H](C)[C@@H](O)[C@]1(C)O [Example 101, 3′-dedimethylamino-2′-deoxy-2′-dimethylamino-3′-(1-piperidino)-6-O-methylerythromycin A] | –
10 | > 128 µg/mL | 3.55 µM | CC[C@H]1OC(=O)[C@H](C)[C@@H](O[C@H]2C[C@@](C)(OC)[C@@H](O)[C@H](C)O2)[C@H](C)[C@@H](O[C@@H]2O[C@H](C)C[C@H](N(C)C)[C@H]2OCCCNS(C)(=O)=O)[C@@](C)(OC)C[C@@H](C)C(=O)[C@H](C)[C@@H](O)[C@]1(C)O [Example 117, 2′-O-(3-methanesulfonylamidepropyl)-6-O-methylerythromycin A] | –
11 | > 128 µg/mL | 1.72 µM | CC[C@H]1OC(=O)[C@H](C)[C@@H](O[C@H]2C[C@@](C)(OC)[C@@H](O)[C@H](C)O2)[C@H](C)[C@@H](O[C@@H]2O[C@H](C)C[C@@H](N(C)Cc3ccc(N4CCOCC4)cc3)[C@@H]2N(C)C)[C@@](C)(OC)C[C@@H](C)C(=O)[C@H](C)[C@@H](O)[C@]1(C)O [Example 182, 3′-N-demethyl-2′-deoxy-2′-dimethylamino-3′-N-(4-(4-morpholino)benzyl)methyl-6-O-methylerythromycin A] | –
12 | > 128 µg/mL | 2.61 µM | CC[C@H]1OC(=O)[C@H](C)[C@@H](O[C@H]2C[C@@](C)(OC)[C@@H](OC(C)=O)[C@H](C)O2)[C@H](C)[C@@H](O[C@@H]2O[C@H](C)C[C@H](N(C)C)[C@H]2OC)[C@@](C)(OC)C[C@@H](C)[C@H](OC(=O)CCN(C)C)[C@H](C)[C@@H](O)[C@]1(C)O [Compound V of Example 147, 4″-O-acetyl-9-deoxo-9-(S)-(3-dimethylaminopropionyloxy)-6,2′-di-O-methylerythromycin A] | –
13 | > 128 µg/mL | 4.95 µM | CC[C@H]1OC(=O)[C@H](C)[C@@H](O[C@H]2C[C@@](C)(OC)[C@@H](O)[C@H](C)O2)[C@H](C)[C@@H](O[C@@H]2O[C@H](C)C[C@@H](N(C)CCO)[C@@H]2N(C)C)[C@@](C)(OC)C[C@@H](C)C(=O)[C@H](C)[C@@H](O)[C@]1(C)O [Example 173, 3′-N-demethyl-2′-deoxy-2′-dimethylamino-3′-N-(2-hydroxyethyl)-6-O-methylerythromycin A] | –
14 | > 128 µg/mL | 1.59 µM | CC[C@H]1OC(=O)[C@H](C)[C@@H](O[C@H]2C[C@@](C)(OC)[C@@H](O)[C@H](C)O2)[C@H](C)[C@@H](O[C@@H]2O[C@H](C)C[C@@H](N3CCN(C)CC3)[C@@H]2N(C)C)[C@@](C)(OC)C[C@@H](C)C(=O)[C@H](C)[C@H]2NC(=O)O[C@@]21C [Example 89, 11-amino-3′-dedimethylamino-11,2′-dideoxy-2′-dimethylamino-3′-(4-methylpiperazin-1-yl)-6-O-methylerythromycin A 11,12-cyclic carbamate] | –
15 | > 128 µg/mL | 2.51 µM | CC[C@H]1OC(=O)[C@H](C)[C@@H](O[C@H]2C[C@@](C)(OC)[C@@H](OC(C)=O)[C@H](C)O2)[C@H](C)[C@@H](O[C@@H]2O[C@H](C)C[C@@H](N3CCCC(O)C3)[C@@H]2N(C)C)[C@@](C)(OC)C[C@@H](C)C(=O)[C@H](C)[C@@H](O)[C@]1(C)O (mixture of isomers) [Example 196, 4″-O-acetyl-3′-dedimethylamino-2′-deoxy-2′-dimethylamino-3-((±)-3-hydroxypiperidin-1-yl)-6-O-methylerythromycin A] | –
16 | > 128 µg/mL | 2.58 µM | CC[C@H]1OC(=O)[C@H](C)C(=O)[C@H](C)[C@@H](O[C@@H]2O[C@H](C)C[C@@H](N3CCOCC3)[C@@H]2N(C)C)[C@@](C)(OC)C[C@@H](C)C(=O)[C@H](C)[C@H]2N(CCCCn3cnc(-c4cccnc4)c3)C(=O)O[C@]12C [Example 211, 3,11-dideoxy-5-O-(3′-dedimethylamino-2′-deoxy-2′-dimethylamino-3′-(4-morpholino)desosaminyl)-11-{4-[4-(pyridin-3-yl)-1H-imidazol-1-yl]butyl}-amino-3-oxo-6-O-methylerythronolide A 11,12-cyclic carbamate] | –
17 | > 128 µg/mL | 2.55 µM | CC[C@H]1OC(=O)[C@H](C)[C@@H](O[C@H]2C[C@@](C)(OC)[C@@H](O)[C@H](C)O2)[C@H](C)[C@@H](O[C@@H]2O[C@H](C)C[C@@H](N3CCOCC3)[C@@H]2N(C)CCN(C)C)[C@@](C)(OC)C[C@@H](C)C(=O)[C@H](C)[C@@H](O)[C@]1(C)O [Example 216] | –
18 | > 128 µg/mL | 3.24 µM | CC[C@H]1OC(=O)[C@H](C)[C@@H](O[C@H]2C[C@@](C)(OC)[C@@H](O)[C@H](C)O2)[C@H](C)[C@@H](O[C@@H]2O[C@H](C)C[C@@H](N(C)Cc3ccncc3)[C@@H]2N(C)C)[C@@](C)(OC)C[C@@H](C)C(=O)[C@H](C)[C@@H](O)[C@]1(C)O [Example 188, 3′-N-demethyl-2′-deoxy-2′-dimethylamino-3′-N-(4-pyridylmethyl)-6-O-methylerythromycin A] | –
